Assay results from patent US7749953B2, “Methods compositions and articles of manufacture for modulating bone growth” (Yissum Research Development Company of the Hebrew …, priority 2002, dated 2010).
“Also recorded” adds a separate entry of the source.

Columns and labels:
[1] = system: diaphyseal bone marrow derived stromal cells; assay: Cell count, TNSALP activity and mineralization in differentiating primary bone marrow stromal cells (10 days osteogenic medium); type: cell-based, mice; details: for number of diaphyseal bone marrow derived stromal cells: cells grown 10 days in osteogenic medium, counted after 48 h with ligand
Experimental: mRNA analysis: Primary osteoblastogenic cultures of stromal cells were prepared from femoral and tibial diaphyseal bone marrow of WT C57BL/6J mice and grown in “osteogenic medium” containing ascorbic acid, β-glycerophophate and dexamethasone (Sigma) as described by Frenkel et al. (17). Real-time RT-PCR analysis was carried out using Applied Biosystems Assay-on-Demand. Data was normalized GAPDH. Assay ID: GAPDH, Mm99999915_g1; CB1, Mm00432621_s1; CB2, Mm00438286_m1; PTHRc1, Mm00441046_m1; RUNX2, Mm00501578_m1; TNSALP, Mm00475831_m1. RT-PCR analysis was carried out using the primers described by Lee et al. (19).
(§1) In vitro effect of HU-308: Differentiating primary bone marrow stromal cells and MC3T3 E1 osteoblasts were initially incubated in osteogenic medium for 10 days followed by 2 h serum starvation. Ligands were dissolved in dimethylsulfoxide (DMSO) and further diluted to their final concentration using tissue culture medium. In the primary cultures, cells were counted after 48 h incubation in αMEM supplemented with 4% BSA and ligand. BrdU incorporation was determined in MC3T3 E1 cells after 24 h incubation with HU-308 preceded by 2 h with pertussis toxin (PTX). DNA content, tissue non-specific alkaline phosphatase (TNSALP) activity and calcium were determined in MC3T3 E1 cells grown for 20 days in osteogenic medium and supplemented with HU-308 in the last 14 days. The effect of HU-308 on osteoclast differentiation was measured in the osteoclastogenic system described above, supplemented with HU-308 dissolved initially in DMSO and diluted with medium. HU-308 was also tested in a RAW 264.7 cell grown for 7 days in RANKL-supplemented medium. For osteoclast-like cell counts the cultures were fixed in ethanol and TRAP-stained.

MC3T3 E1 cells = assay: BrdU incorporation (DNA synthesis) in partially differentiated MC3T3 E1 osteoblastic cells; type: cell-based, murine; details: 24 h exposure to HU-308
Experimental: as §1

mature MC3T3 E1 cells = assay: DNA content, TNSALP activity and calcium in mature MC3T3 E1 osteoblasts; type: cell-based, murine; details: 20 days osteogenic medium, HU-308 during last 14 days
Experimental: as §1

[2] = system: primary bone marrow derived monocytes; assay: Osteoclast differentiation, TRAP-positive osteoclast-like cell count in bone marrow derived monocyte culture with M-CSF and RANKL; type: cell-based, Mouse; details: 5 days in the presence of M-CSF and RANKL
Experimental: Mouse femoral monocytes were separated on a Ficoll gradient and grown in culture for 5 days in medium containing the osteoclast differentiation factors M-CFS and RANKL as described by Zou et al FASEB J 2002; 16:274-82). At the end of incubation cultures were analyzed for CB2 and FAAH expression by RT-PCR as described above, and were stained with an osteoclast marker tartarate-resistant acid phosphatase for direct observation of differentiated osteoclasts.
as §1, with “Ligands were dissolved in dimethylsulfoxide (DMSO) and further diluted to their final concentration using tissue culture medium.” left out, “HU-308 was also tested in a RAW 264.7 cell grown for 7 days in RANKL-supplemented medium. For osteoclast-like cell counts the cultures were fixed in ethanol and TRAP-stained.” left out

RAW 264.7 cells = assay: Osteoclast-like cell count in RAW 264.7 cell culture; type: cell-based; details: 7-day RAW 264.7 cell culture supplemented with M-CSF
Experimental: as §1

OVX C3H mice = assay: OVX-induced femoral bone loss, μCT and histomorphometry; type: in vivo; details: HU-308 10 mg/Kg/day i.p.
Experimental: Animals: Mice with a deletion of the CNR2 gene (CB2^−/− mice) (9) were crossed for 10 generations to wild type C57BL/6J mice to generate a congenic C57BL/6J CB2^−/− strain. The effect of CB2 signalling on OVX-induced bone loss was analysed in normal C3H mice (Harlan, Israel) due to their high femoral bone density (10), which allows for a substantial amount of bone loss to occur. Because of the low trabecular bone volume density in C57BL/6J females (FIG. 8A), the absolute amount of OVX-induced bone loss in these animals is small and a large sample is required to achieve statistical significance. In addition, the number of calcein labelled packets (see below) in OVX C57BL/6J mice is often too small for the calculation of bone formation parameters in the trabecular compartment. HU-308, synthetic CB2 specific agonist with a MW of 414 g/mol, was prepared as described by Hildebrand et al. (11) and injected intraperitoneally to OVX and control mice once daily as ethanol/emulphor/saline (1:1:18) solution. To study bone formation, newly formed bone was vitally labelled in all reported animals by the fluorochrome calcein (Sigma), injected intraperitoneally (15 mg/Kg) four days and one day prior to sacrifice. Groups of 8-10 mice, 8-11 or 51 weeks old, were used in each experiment. The experimental protocols were approved by the Institutional Animal Care and Use Committee, Faculty of Medicine, the Hebrew University of Jerusalem, Israel and by the Regierungspräsidium Köln for the University of Bonn, Germany.
Micro-computed tomographic (μCT) analysis: The μCT Analyses were performed as described in Example 1 above.
Histomorphometry and immunohistochemistry: After μCT image acquisition, the specimens were embedded undecalcified in Technovit 9100 (Heraeus Kulzer, Wehrheim, Germany). Longitudinal sections through the mid-frontal plane were left unstained for dynamic histomorphometry based on the vital calcein double labeling. To identify osteoclasts, consecutive sections were stained for tartrate-resistant acid phosphatase (TRAP) (14). Parameters were determined according to a standardized nomenclature (15). Immunohistochemistry was performed using paraffin-embedded decalcified sections (16) with a polyclonal first antibody raised against the human CB2(20-33) peptide (Cayman Ann Arbor, Mich.; Cat. No. 101550). The same peptide (Cayman Ann Arbor, Mich.; Cat. No. 301550) was used to block protein-antibody complex formation in control staining.
Statistical Analyses: Differences between CB2^−/− and WT mice were analysed by t-test. HU-308 and vehicle treated OVX and sham-OVX mice were analysed by ANOVA. When significant differences were indicated by ANOVA, group means were compared using the Tukey test for pairwise comparisons.

[3] = system: 11 week-old C3H (Harlan) mice; assay: In vivo bone formation activity, calcein dynamic histomorphometry of distal femoral metaphysis
Experimental: The endocannabinoid 2-arachidonoyl glycerol (2AG) and the CB1 cannabinoid receptor antagonist N-(piperidin-1-yl)-5-(4-chlorophenyl)-1-(2,4-dichlorophenyl)4-methyl-1H-pyrazole-3-carboxamide hydrochloride (SR-141761A; Panikashvili et al., Nature 413: 527-531 (2001)] were dissolved in 1:1:18 ethanol:emulfor:saline (v/v/v) vehicle. Different dosages of each agent were daily injected intraperitoneally to 11 week-old C3H (Harlan) mice. 2AG was administered at 0 (vehicle control), 0.5, 5, and 20 mg/Kg body weight per day for 9 days; SR-141761A was administered at 1 and 10 mg/Kg body weight per day for 9 days.
To assess the in vivo bone formation activity the mice were given 15 mg/Kg body weight calcein intrapertoneally, four days and one day (same day as the last 2AG injection) prior to sacrifice. Femoral bones were separated immediately after sacrifice and subjected, undecalcified, to histological processing. Dynamic bone histomorphometric parameters were analyzed in the distal metaphysis (secondary spongiosa) in unstained longitudinal mid-saggital sections, using the procedure described by Parfitt et al. [J. Bone Miner. Res. 2: 595-610 (1987)]. The data obtained were statistically analyzed by Mann-Whitney U-test to determine significance of differences between the treatments.

[4] = early differentiation stage (10 days osteogenic medium)
[5] = 4 weeks from ovariectomy, distal femoral metaphysis
[6] = 2AG up to 5 mg/Kg/day i.p. for 9 days, followed by a plateau
[7] = SR-141761A up to 10 mg/Kg/day i.p. for 9 days, data not shown

## CCCCCCC(C)(C)c1cc(OC)c([C@H]2C=C(CO)C3CC2C3(C)C)c(OC)c1 (single isomer, unassigned; (+)) [HU-308, (+)-(1-a-H,-(3-H,5-a-H)-4-(2,6-dimethoxy-4-(1,1-dimethylhept-yl)phenyl]-6,6 dimethylbicycloj3.1.1]hept-2-ene-2-carbinol]
[1]
  number of diaphyseal bone marrow derived stromal cells: potently increased
[1]; [4]
  TNSALP activity: unaffected
  matrix mineralization: unaffected
MC3T3 E1 cells
  DNA synthesis (BrdU uptake): stimulation
Mature MC3T3 E1 cells
  TNSALP activity: markedly enhanced
  accumulation of extracellular mineral: markedly enhanced
Mature MC3T3 E1 cells; compared with partially differentiated cells
  cell number (measured as DNA content): milder
[2]
  number of osteoclast-like cells: dose dependently inhibited
RAW 264.7 cells
  number of osteoclast-like cells: reduced
OVX C3H mice; 4 weeks from ovariectomy
  bone formation in the trabecular compartment: did not stimulate
OVX C3H mice; [5]
  OVX-induced trabecular bone loss (trabecular bone volume density): attenuation
  osteoclast number: further inhibited
OVX C3H mice; 4 weeks, mid-diaphysis
  endocortical bone formation: vast stimulation
  size of the medullary cavity: significant reduction
OVX C3H mice; 4 weeks, mid-diaphysis, exceeded OVX and sham-OVX mice
  cortical thickness: marked increase

## CCCCC/C=C\C/C=C\C/C=C\C/C=C\CCCC(=O)OC(CO)CO [2AG, 2-arachidonoyl glycerol]
[3]; 2AG 5 mg/Kg/day vs vehicle-treated controls
  uptake of fluorescently labeled calcein in bone tissue (fluorescent histological images): visibly increased
[3]; 2AG 5 and 20 mg/Kg/day i.p. for 9 days, p=0.019
  mineralizing perimeter (MP) vs control: substantially and significantly higher
[3]; 2AG 5 and 20 mg/Kg/day intraperitoneally for 9 days, p=0.04
  bone-formation rate (BFR) higher than the vehicle control: up to 44%
[3]; 2AG i.p. for 9 days
  mineral appositional rate: no significant effect
[3]; [6]
  bone-formation rate (BFR), dose response: dose-dependent stimulation; also recorded: significant positive dose response effect
  mineralizing perimeter (MP), dose response: dose-dependent increase

## CCCCC/C=C\C/C=C\C/C=C\C/C=C\CCCCOC(CO)CO [Noladin ether, 2-arachidonyl glyceryl ether, reference compound]
[1]
  number of diaphyseal bone marrow derived stromal cells: no significant effect

## Cc1c(C(=O)NN2CCCCC2)nn(-c2ccc(Cl)cc2Cl)c1-c1ccc(Cl)cc1.Cl [SR-141761A, N-(piperidin-1-yl)-5-(4-chlorophenyl)-1-(2,4-dichlorophenyl)4-methyl-1H-pyrazole-3-carboxamide hydrochloride]
[3]; [7]
  BFR (osteoblastic activity) vs vehicle control: higher (but not statistically different)
  MP (osteoblast number) vs vehicle control: higher and statistically different
